Measured values reported in patent publication US12491170B2, “Stable treprostinil prodrugs” (United Therapeutics Corporation, priority 2020, dated 2025).
Read-outs that look alike come from different tables or passages of the source.

Experiments:
PGE2 receptor 1 (EP1) = molecular target: T1, PGE2 receptor 1 (EP1) (Homo sapiens, UniProt P34995); assay: EP1 receptor calcium agonist assay (HEK293T cells); format: cell-based; parameters: key to EC50 Fold Different from Treprostinil, EP1 Receptor: NC = too inactive to realistically calculate; conditions: Table 18; * partial agonists or odd dose-response curves
T1 sequence (P34995 1-402): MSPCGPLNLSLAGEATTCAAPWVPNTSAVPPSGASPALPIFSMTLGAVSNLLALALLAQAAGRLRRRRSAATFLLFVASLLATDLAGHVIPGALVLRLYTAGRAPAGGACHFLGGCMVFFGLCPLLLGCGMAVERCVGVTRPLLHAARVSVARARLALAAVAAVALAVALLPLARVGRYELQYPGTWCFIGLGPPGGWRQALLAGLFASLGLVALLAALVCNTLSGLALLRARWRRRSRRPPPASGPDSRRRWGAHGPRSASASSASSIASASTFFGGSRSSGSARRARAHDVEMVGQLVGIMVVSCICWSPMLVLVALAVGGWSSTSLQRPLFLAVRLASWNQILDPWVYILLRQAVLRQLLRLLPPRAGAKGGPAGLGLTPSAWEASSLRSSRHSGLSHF
Description: Calcium assay kit: Multiscreen™ Calcium 1.0 No Wash Kit (Multispan, Inc., Cat #MSCA01-1)
• EP1 Calcium and DP1 cAMP Assays: HBSS plus 20 mM HEPES • EP2 and IP1 cAMP Assays: 1 mM IBMX in HBSS plus 20 mM HEPES Instruments: FlexStation III (Molecular Devices) and FLIPR 384 (Molecular Devices)
Cells were thawed from frozen cells and resuspended in assay buffer at desired concentrations. cAMP or Calcium assays were performed according to the manufacturer's protocol using Multiscreen™ TR-FRET cAMP 1.0 No Wash Assay Kit or Multiscreen™ Calcium 1.0 No Wash Kit.
Calcium Assay: Cells were seeded in a 384-well plate at an appropriate density. The calcium assay was conducted according to the manufacturer's protocols (Multiscreen Calcium 1.0 No Wash Assay Kit). The calcium dye loading buffer was added to the cells and incubated for 1 hour at 37° C. For agonist mode, cells were injected with Iloprost control agonist or test compound by FLIPR and calcium mobilization was monitored for 180 seconds with compound injected into the wells at the 19th second. Fluorescent emissions were read at 525 nm with excitation at 490 nm in a FLIPR 384 instrument (Molecular Devices).
Calcium Assay: Calcium assay results are expressed as “RFU” as defined in figure below. Data are represented in Mean±SEM. Dose-response curves were fitted using “Sigmoidal dose-response (variable slope)” function in GraphPad Prism 6. EC50 values were calculated based on the fitted curves.
Prostaglandin receptor activity assessments with treprostinil and treprostinil analogues have been conducted, and a historical, positive control agonist for these receptors, iloprost (for IP, EP2 and EP1) or PGD2 (for DP1), was also included. These studies used cell lines overexpressing either human IP, EP2 or DP1, or EP1 receptors, and following incubation with varying concentrations of compounds, cAMP levels were measured using Fluorescence Resonance Energy Transfer (FRET). The 665/620 (acceptor/donor emission signals) ratio is inversely proportional to the concentration of cAMP.

[1] = Stability in simulated intestinal fluid; format: in vitro ADME
Description: Studies were carried out in simulated intestinal fluid (SIF). SIF was prepared by dissolving 6.8 g of KH2PO4 in 250 mL of water, mixing, and then adding 77 mL of 0.2 N NaOH and […] of water. […] DMSO stocks were first prepared for the test articles. […] The vials were kept in a benchtop Thermomixer® for the duration of the experiment. A separate tube was dosed for each time point in each matrix. […] Samples were mixed and then immediately stored at 4° C. until the end of the experiment. After the final time point was sampled, the plate was mixed and then centrifuged at 3000 rpm for 10 minutes.

[2] = Plasma stability, rat plasma; format: in vitro ADME, Sprague-Dawley rat
Description: (§1) Studies were carried out in mixed-gender human plasma male Sprague-Dawley rat plasma, and male Beagle dog plasma. All plasma was obtained from Bioreclamation and collected on K2EDTA. Plasma was adjusted to pH 7.4 prior to initiating the experiments. DMSO stocks were first prepared for the test articles. […] The vials were kept in a benchtop Thermomixer® for the duration of the experiment. […] Samples were stored at 4° C. until the end of the experiment. After the final time point was sampled, the plate was mixed and then centrifuged at 3000 rpm for 10 minutes.

[3] = Plasma stability, human plasma; format: in vitro ADME
Description: as §1

[4] = Hydrolysis of prodrugs to treprostinil at pH 6, 7, 8 and 40 C; format: physicochemical
Description: Tables 24, 25 and 26 present data for hydrolysis of selected treprostinil prodrugs at pH 6, 7 and 8, respectively, and 40 C.

[5] = dog
[6] = Plasma stability, dog plasma; format: in vitro ADME, Beagle dog
Description: as §1

[7] = rat

## CCCCCC(CCC1C(OC(=O)CC)CC2Cc3c(cccc3OCC(=O)O)CC21)OC(=O)CC (centres unmarked) [Prodrug LXX, treprostinil dipropionate]
PGE2 receptor 1 (EP1)
  EC50 Fold Different from Treprostinil, EP1 Receptor: NC
[1]; SIF pH 6.8 with pancreatin, 1 μM, 37° C.
  Half-life: >2 h
[1]; SIF pH 6.8 with pancreatin, 1 μM, 37° C., 0 min
  Percent Remaining 0 min: 100%
[1]; SIF pH 6.8 with pancreatin, 1 μM, 37° C., 15 min
  Percent Remaining 15 min: 97.2%
[1]; SIF pH 6.8 with pancreatin, 1 μM, 37° C., 30 min
  Percent Remaining 30 min: 104%
[1]; SIF pH 6.8 with pancreatin, 1 μM, 37° C., 60 min
  Percent Remaining 60 min: 93.6%
[1]; SIF pH 6.8 with pancreatin, 1 μM, 37° C., 120 min
  Percent Remaining 120 min: 86.2%
[1]; SIF, prodrug dosed 1 μM, 0 min
  Formation of Treprostinil, Concentration 0 min: 0 µM
[1]; SIF, prodrug dosed 1 μM, 15 min
  Formation of Treprostinil, Concentration 15 min: 0 µM
[1]; SIF, prodrug dosed 1 μM, 30 min
  Formation of Treprostinil, Concentration 30 min: 0 µM
[1]; SIF, prodrug dosed 1 μM, 60 min
  Formation of Treprostinil, Concentration 60 min: 0.00415 µM
[1]; SIF, prodrug dosed 1 μM, 120 min
  Formation of Treprostinil, Concentration 120 min: 0.0720 µM
[2]; 1 μM, 37° C.
  Half-life: 1.7 h
[2]; 1 μM, 37° C., 0 min
  Percent Remaining 0 min: 100%
[2]; 1 μM, 37° C., 15 min
  Percent Remaining 15 min: 98.3%
[2]; 1 μM, 37° C., 30 min
  Percent Remaining 30 min: 80.3%
[2]; 1 μM, 37° C., 60 min
  Percent Remaining 60 min: 69.3%
[2]; 1 μM, 37° C., 120 min
  Percent Remaining 120 min: 45.0%
[2]; prodrug dosed 1 μM, 0 min
  Formation of Treprostinil, Concentration 0 min: 0 µM
[2]; prodrug dosed 1 μM, 15 min
  Formation of Treprostinil, Concentration 15 min: 0.00392 µM
[2]; prodrug dosed 1 μM, 30 min
  Formation of Treprostinil, Concentration 30 min: 0.0101 µM
[2]; prodrug dosed 1 μM, 60 min
  Formation of Treprostinil, Concentration 60 min: 0.0331 µM
[2]; prodrug dosed 1 μM, 120 min
  Formation of Treprostinil, Concentration 120 min: 0.0768 µM
[3]; 1 μM, 37° C.
  Half-life: >2 h
[3]; 1 μM, 37° C., 0 min
  Percent Remaining 0 min: 100%
[3]; 1 μM, 37° C., 15 min
  Percent Remaining 15 min: 92.4%
[3]; 1 μM, 37° C., 30 min
  Percent Remaining 30 min: 102%
[3]; 1 μM, 37° C., 60 min
  Percent Remaining 60 min: 93.3%
[3]; 1 μM, 37° C., 120 min
  Percent Remaining 120 min: 103%
[3]; prodrug dosed 1 μM, 0 min
  Formation of Treprostinil, Concentration 0 min: 0 µM
[3]; prodrug dosed 1 μM, 15 min
  Formation of Treprostinil, Concentration 15 min: 0 µM
[3]; prodrug dosed 1 μM, 30 min
  Formation of Treprostinil, Concentration 30 min: 0 µM
[3]; prodrug dosed 1 μM, 60 min
  Formation of Treprostinil, Concentration 60 min: 0 µM
[3]; prodrug dosed 1 μM, 120 min
  Formation of Treprostinil, Concentration 120 min: 0 µM
[4]; pH 6, 40 C.
  Hydrolysis to treprostinil, % Area, t = 1 week: 0.00 % Area
  Hydrolysis to treprostinil, % Area, t = 2 weeks: 0.00 % Area
  Hydrolysis to treprostinil, % Area, t = 3 weeks: 0.00 % Area
[4]; pH 7, 40 C.
  Hydrolysis to treprostinil, % Area, t = 1 week: 0.00 % Area
  Hydrolysis to treprostinil, % Area, t = 2 weeks: 0.00 % Area
  Hydrolysis to treprostinil, % Area, t = 3 weeks: 0.00 % Area
[4]; pH 8, 40 C.
  Hydrolysis to treprostinil, % Area, t = 1 week: 0.00 % Area
  Hydrolysis to treprostinil, % Area, t = 2 weeks: 0.00 % Area
  Hydrolysis to treprostinil, % Area, t = 3 weeks: 0.00 % Area
[5]
  AUC: 71.85 µmol·min/L
[6]; 1 μM, 37° C.
  Half-life: >2 h
[6]; 1 μM, 37° C., 0 min
  Percent Remaining 0 min: 100%
[6]; 1 μM, 37° C., 15 min
  Percent Remaining 15 min: 103%
[6]; 1 μM, 37° C., 30 min
  Percent Remaining 30 min: 116%
[6]; 1 μM, 37° C., 60 min
  Percent Remaining 60 min: 97.4%
[6]; 1 μM, 37° C., 120 min
  Percent Remaining 120 min: 91.4%
[6]; prodrug dosed 1 μM, 0 min
  Formation of Treprostinil, Concentration 0 min: 0 µM
[6]; prodrug dosed 1 μM, 15 min
  Formation of Treprostinil, Concentration 15 min: 0 µM
[6]; prodrug dosed 1 μM, 30 min
  Formation of Treprostinil, Concentration 30 min: 0 µM
[6]; prodrug dosed 1 μM, 60 min
  Formation of Treprostinil, Concentration 60 min: 0 µM
[6]; prodrug dosed 1 μM, 120 min
  Formation of Treprostinil, Concentration 120 min: 0 µM
[7]
  AUC: 38.82 µmol·min/L
